According to US11865098B1, “Methods and compositions for treating excessive sleepiness” (Axsome Malta Ltd., priority 2017, dated 2024):

Tested on: patients with narcolepsy type 1 or type 2
Assay: MWT, 12-week phase 3 study in narcolepsy
Type: in vivo, human
Description: The MWT is an objective test used to measure how alert a subject is during the day. The test consists of four sleep trials with two hours in between the trials. The first trial is performed 1.5-3 hours after the subject's normal wake-up time. Sensors are placed on the head, face, and chin to detect when the subject is asleep and awake during the test. The subject sits quietly in bed with his or her back and head supported by a pillow and is asked to sit still and look straight ahead while trying to stay awake as long as possible. Each trial lasts 40 minutes or until the subject is asleep for 90 seconds. Between trials, the subject stays out of bed and occupies himself or herself to remain awake. Falling asleep in an average of less than eight minutes is considered abnormal. About 40-60% of subjects with normal sleep stay awake for the entire 40 minutes of all four trials.
The study was a 12-week, double-blind, randomized, placebo-controlled, parallel-group study. Patients were randomized (1:1:1:1) to receive placebo or APC 75, 150, or 300 mg; randomization was stratified by the presence or absence of cataplexy.
Key inclusion criteria included adults 18-75 years old, inclusive, with a diagnosis of narcolepsy type 1 or type 2 according to ICSD-3 (American Academy of Sleep Medicine. The International Classification of Sleep Disorders—Third Edition (ICSD-3). Darien, IL: American Academy of Sleep Medicine; 2014) or DSM-5 (American Psychiatric Association. Diagnostic and Statistical Manual of Mental Disorders Fifth Edition (DSM-5). Arlington, VA: American Psychiatric Association; 2013) criteria, baseline mean sleep latency <25 minutes on the first 4 trials of a 5-trial, 40-minute Maintenance of Wakefulness Test (MWT) and baseline Epworth Sleepiness Scale (ESS) (Johns, Sleep 14(6):540 (1991)) score ≥10, usual nightly total sleep time ≥6 hours, and body mass index between 18 and 45 kg/m^2.
Co-primary endpoints were change from baseline to week 12 in MWT mean sleep latency and ESS score. The key secondary endpoint was the percentage of patients who reported improvement on the Patient Global Impression of Change (PGI-C) (Guy, ECDEU assessment manual for psychopharmacology, revised. US Department of Health, Education, and Welfare publication (ADM 76-338). Rockville, MD: National Institute of Mental Health; 1976) at week 12. Other secondary and exploratory endpoints included changes on function and quality-of-life and changes in the number of cataplexy attacks per week. Safety evaluation included adverse events, laboratory tests, and vital signs.
Efficacy analyses were based on the modified intent-to-treat population (mITT), defined as all patients who were randomized, received at least 1 dose of study drug, and had baseline and at least 1 post-baseline evaluation of both MWT and ESS. MWT and ESS were analyzed using a mixed-effect repeated measures (MMRM) model. PGI-C was analyzed using a chi-square test. A fixed hierarchical testing procedure was used to correct for multiplicity, starting with the highest dose of APC for the co-primary endpoints and the key secondary endpoint; testing proceeded with each subsequent lower doses.

[1] = Combined JZP-110, Week 12, mITT

## NC(=O)OC[C@H](N)Cc1ccccc1 [JZP-110, (R)-2-amino-3-phenylpropyl carbamate]
75 mg, Week 1, mITT
  MWT mean sleep latency increase from baseline >=5 minutes, % of subjects: (34.5) %
  MWT mean sleep latency increase from baseline >=5 minutes, n subjects: 10
  MWT mean sleep latency increase from baseline >=10 minutes, % of subjects: (24.1) %
  MWT mean sleep latency increase from baseline >=10 minutes, n subjects: 7
  MWT mean sleep latency increase from baseline >=15 minutes, % of subjects: (17.2) %
  MWT mean sleep latency increase from baseline >=15 minutes, n subjects: 5
  MWT mean sleep latency increase from baseline >=20 minutes, % of subjects: (10.3) %
  MWT mean sleep latency increase from baseline >=20 minutes, n subjects: 3
  MWT mean sleep latency increase from baseline >=25 minutes, % of subjects: (3.4) %
  MWT mean sleep latency increase from baseline >=25 minutes, n subjects: 1
  MWT mean sleep latency increase from baseline >=30 minutes, n subjects: 0
75 mg, Week 4, mITT
  MWT mean sleep latency increase from baseline >=5 minutes, % of subjects: (42.0) %
  MWT mean sleep latency increase from baseline >=5 minutes, n subjects: 21
  MWT mean sleep latency increase from baseline >=10 minutes, % of subjects: (24.0) %
  MWT mean sleep latency increase from baseline >=10 minutes, n subjects: 12
  MWT mean sleep latency increase from baseline >=15 minutes, % of subjects: (12.0) %
  MWT mean sleep latency increase from baseline >=15 minutes, n subjects: 6
  MWT mean sleep latency increase from baseline >=20 minutes, % of subjects: (6.0) %
  MWT mean sleep latency increase from baseline >=20 minutes, n subjects: 3
  MWT mean sleep latency increase from baseline >=25 minutes, n subjects: 0
  MWT mean sleep latency increase from baseline >=30 minutes, n subjects: 0
75 mg, Week 12, mITT
  MWT mean sleep latency increase from baseline >=5 minutes, % of subjects: (41.3) %
  MWT mean sleep latency increase from baseline >=5 minutes, n subjects: 19
  MWT mean sleep latency increase from baseline >=10 minutes, % of subjects: (19.6) %
  MWT mean sleep latency increase from baseline >=10 minutes, n subjects: 9
  MWT mean sleep latency increase from baseline >=15 minutes, % of subjects: (15.2) %
  MWT mean sleep latency increase from baseline >=15 minutes, n subjects: 7
  MWT mean sleep latency increase from baseline >=20 minutes, % of subjects: (8.7) %
  MWT mean sleep latency increase from baseline >=20 minutes, n subjects: 4
  MWT mean sleep latency increase from baseline >=25 minutes, % of subjects: (2.2) %
  MWT mean sleep latency increase from baseline >=25 minutes, n subjects: 1
  MWT mean sleep latency increase from baseline >=30 minutes, n subjects: 0
150 mg, Week 1, mITT
  MWT mean sleep latency increase from baseline >=5 minutes, % of subjects: (68.2) %
  MWT mean sleep latency increase from baseline >=5 minutes, n subjects: 15
  MWT mean sleep latency increase from baseline >=10 minutes, % of subjects: (50.0) %
  MWT mean sleep latency increase from baseline >=10 minutes, n subjects: 11
  MWT mean sleep latency increase from baseline >=15 minutes, % of subjects: (22.7) %
  MWT mean sleep latency increase from baseline >=15 minutes, n subjects: 5
  MWT mean sleep latency increase from baseline >=20 minutes, % of subjects: (9.1) %
  MWT mean sleep latency increase from baseline >=20 minutes, n subjects: 2
  MWT mean sleep latency increase from baseline >=25 minutes, n subjects: 0
  MWT mean sleep latency increase from baseline >=30 minutes, n subjects: 0
150 mg, Week 4, mITT
  MWT mean sleep latency increase from baseline >=5 minutes, % of subjects: (61.2) %
  MWT mean sleep latency increase from baseline >=5 minutes, n subjects: 30
  MWT mean sleep latency increase from baseline >=10 minutes, % of subjects: (42.9) %
  MWT mean sleep latency increase from baseline >=10 minutes, n subjects: 21
  MWT mean sleep latency increase from baseline >=15 minutes, % of subjects: (30.6) %
  MWT mean sleep latency increase from baseline >=15 minutes, n subjects: 15
  MWT mean sleep latency increase from baseline >=20 minutes, % of subjects: (16.3) %
  MWT mean sleep latency increase from baseline >=20 minutes, n subjects: 8
  MWT mean sleep latency increase from baseline >=25 minutes, % of subjects: (10.2) %
  MWT mean sleep latency increase from baseline >=25 minutes, n subjects: 5
  MWT mean sleep latency increase from baseline >=30 minutes, n subjects: 0
150 mg, Week 12, mITT
  MWT mean sleep latency increase from baseline >=5 minutes, % of subjects: (58.0) %
  MWT mean sleep latency increase from baseline >=5 minutes, n subjects: 29
  MWT mean sleep latency increase from baseline >=10 minutes, % of subjects: (48.0) %
  MWT mean sleep latency increase from baseline >=10 minutes, n subjects: 24
  MWT mean sleep latency increase from baseline >=15 minutes, % of subjects: (36.0) %
  MWT mean sleep latency increase from baseline >=15 minutes, n subjects: 18
  MWT mean sleep latency increase from baseline >=20 minutes, % of subjects: (18.0) %
  MWT mean sleep latency increase from baseline >=20 minutes, n subjects: 9
  MWT mean sleep latency increase from baseline >=25 minutes, % of subjects: (8.0) %
  MWT mean sleep latency increase from baseline >=25 minutes, n subjects: 4
  MWT mean sleep latency increase from baseline >=30 minutes, % of subjects: (2.0) %
  MWT mean sleep latency increase from baseline >=30 minutes, n subjects: 1
300 mg, Week 1, mITT
  MWT mean sleep latency increase from baseline >=5 minutes, % of subjects: (64.0) %
  MWT mean sleep latency increase from baseline >=5 minutes, n subjects: 16
  MWT mean sleep latency increase from baseline >=10 minutes, % of subjects: (56.0) %
  MWT mean sleep latency increase from baseline >=10 minutes, n subjects: 14
  MWT mean sleep latency increase from baseline >=15 minutes, % of subjects: (44.0) %
  MWT mean sleep latency increase from baseline >=15 minutes, n subjects: 11
  MWT mean sleep latency increase from baseline >=20 minutes, % of subjects: (32.0) %
  MWT mean sleep latency increase from baseline >=20 minutes, n subjects: 8
  MWT mean sleep latency increase from baseline >=25 minutes, % of subjects: (24.0) %
  MWT mean sleep latency increase from baseline >=25 minutes, n subjects: 6
  MWT mean sleep latency increase from baseline >=30 minutes, % of subjects: (20.0) %
  MWT mean sleep latency increase from baseline >=30 minutes, n subjects: 5
300 mg, Week 4, mITT
  MWT mean sleep latency increase from baseline >=5 minutes, % of subjects: (69.2) %
  MWT mean sleep latency increase from baseline >=5 minutes, n subjects: 36
  MWT mean sleep latency increase from baseline >=10 minutes, % of subjects: (53.8) %
  MWT mean sleep latency increase from baseline >=10 minutes, n subjects: 28
  MWT mean sleep latency increase from baseline >=15 minutes, % of subjects: (36.5) %
  MWT mean sleep latency increase from baseline >=15 minutes, n subjects: 19
  MWT mean sleep latency increase from baseline >=20 minutes, % of subjects: (25.0) %
  MWT mean sleep latency increase from baseline >=20 minutes, n subjects: 13
  MWT mean sleep latency increase from baseline >=25 minutes, % of subjects: (17.3) %
  MWT mean sleep latency increase from baseline >=25 minutes, n subjects: 9
  MWT mean sleep latency increase from baseline >=30 minutes, % of subjects: (13.5) %
  MWT mean sleep latency increase from baseline >=30 minutes, n subjects: 7
300 mg, Week 12, mITT
  MWT mean sleep latency increase from baseline >=5 minutes, % of subjects: (60.0) %
  MWT mean sleep latency increase from baseline >=5 minutes, n subjects: 24
  MWT mean sleep latency increase from baseline >=10 minutes, % of subjects: (50.0) %
  MWT mean sleep latency increase from baseline >=10 minutes, n subjects: 20
  MWT mean sleep latency increase from baseline >=15 minutes, % of subjects: (37.5) %
  MWT mean sleep latency increase from baseline >=15 minutes, n subjects: 15
  MWT mean sleep latency increase from baseline >=20 minutes, % of subjects: (27.5) %
  MWT mean sleep latency increase from baseline >=20 minutes, n subjects: 11
  MWT mean sleep latency increase from baseline >=25 minutes, % of subjects: (15.0) %
  MWT mean sleep latency increase from baseline >=25 minutes, n subjects: 6
  MWT mean sleep latency increase from baseline >=30 minutes, % of subjects: (7.5) %
  MWT mean sleep latency increase from baseline >=30 minutes, n subjects: 3
150 and 300 mg, week 12, mITT
  MWT mean sleep latency relative to placebo: significantly increased MWT mean sleep latency relative to placebo
Combined JZP-110, Week 1, mITT
  MWT mean sleep latency increase from baseline >=5 minutes, % of subjects: (53.9) %
  MWT mean sleep latency increase from baseline >=5 minutes, n subjects: 41
  MWT mean sleep latency increase from baseline >=10 minutes, % of subjects: (42.1) %
  MWT mean sleep latency increase from baseline >=10 minutes, n subjects: 32
  MWT mean sleep latency increase from baseline >=15 minutes, % of subjects: (27.6) %
  MWT mean sleep latency increase from baseline >=15 minutes, n subjects: 21
  MWT mean sleep latency increase from baseline >=20 minutes, % of subjects: (17.1) %
  MWT mean sleep latency increase from baseline >=20 minutes, n subjects: 13
  MWT mean sleep latency increase from baseline >=25 minutes, % of subjects: (9.2) %
  MWT mean sleep latency increase from baseline >=25 minutes, n subjects: 7
  MWT mean sleep latency increase from baseline >=30 minutes, % of subjects: (6.6) %
  MWT mean sleep latency increase from baseline >=30 minutes, n subjects: 5
Combined JZP-110, Week 4, mITT
  MWT mean sleep latency increase from baseline >=5 minutes, % of subjects: (57.6) %
  MWT mean sleep latency increase from baseline >=5 minutes, n subjects: 87
  MWT mean sleep latency increase from baseline >=10 minutes, % of subjects: (40.4) %
  MWT mean sleep latency increase from baseline >=10 minutes, n subjects: 61
  MWT mean sleep latency increase from baseline >=15 minutes, % of subjects: (26.5) %
  MWT mean sleep latency increase from baseline >=15 minutes, n subjects: 40
  MWT mean sleep latency increase from baseline >=20 minutes, % of subjects: (15.9) %
  MWT mean sleep latency increase from baseline >=20 minutes, n subjects: 24
  MWT mean sleep latency increase from baseline >=25 minutes, % of subjects: (9.3) %
  MWT mean sleep latency increase from baseline >=25 minutes, n subjects: 14
  MWT mean sleep latency increase from baseline >=30 minutes, % of subjects: (4.6) %
  MWT mean sleep latency increase from baseline >=30 minutes, n subjects: 7
[1]
  MWT mean sleep latency increase from baseline >=5 minutes, % of subjects: (52.9) %
  MWT mean sleep latency increase from baseline >=5 minutes, n subjects: 72
  MWT mean sleep latency increase from baseline >=10 minutes, % of subjects: (39.0) %
  MWT mean sleep latency increase from baseline >=10 minutes, n subjects: 53
  MWT mean sleep latency increase from baseline >=15 minutes, % of subjects: (29.4) %
  MWT mean sleep latency increase from baseline >=15 minutes, n subjects: 40
  MWT mean sleep latency increase from baseline >=20 minutes, % of subjects: (17.6) %
  MWT mean sleep latency increase from baseline >=20 minutes, n subjects: 24
  MWT mean sleep latency increase from baseline >=25 minutes, % of subjects: (8.1) %
  MWT mean sleep latency increase from baseline >=25 minutes, n subjects: 11
  MWT mean sleep latency increase from baseline >=30 minutes, % of subjects: (2.9) %
  MWT mean sleep latency increase from baseline >=30 minutes, n subjects: 4
All doses, as early as week 1
  MWT mean sleep latency, effect at week 1: Statistically significant effects
Over the 12 weeks of the study
  Tolerance to the wake-promoting effects: no apparent tolerance to the wake-promoting effects
